Test results taken from paper PMC11506537, “An 11-mer Synthetic Peptide Suppressing Aggregation of Aβ25-35 and Resolving Its Aggregated Form Improves Test Performance in an Aβ25-35-Induced Alzheimer’s Mouse Model” (Biomolecules, 2024).
Where a SMILES comes first, the peptide text is derived from it.

What was measured:
Aβ25-35 = target: T1, Aβ25-35 (Homo sapiens, UniProt P05067); test: ThT assay, inhibition of Aβ25-35 aggregation; type: biochemical; conditions: for IC50: 100 µM Aβ25-35, PBS, 37 °C, 4 h, ThT fluorescence, n = 3
T1 construct: made in house; host or cells: chemical solid-phase (Fmoc) peptide synthesis; no expression host
Procedure: To perform the ThT assay to evaluate aggregation, Aβ25-35 (final concentration of 100 μM) was incubated with ThT solution (final concentration of 10 μM) in Phosphate-buffered saline (PBS), pH 7.4. The ThT signal was monitored by measuring the fluorescence emission at 480 nm for 10 s when excited at 444 nm using Cytation 5 (BioTek, Vermont, WI, USA) at 37 °C [41]. Aggregated Aβ25-35 (100 μM) peptides were prepared by incubating for 18 h in PBS.
We also evaluated inhibitory effects in a time-dependent manner. The fluorescence intensity of the reaction mixture of peptide and Aβ25-35 was traced for 120 min at 15 min intervals.
Therefore, we evaluated the concentration-dependent aggregation inhibitory effect of YS-RD11 and YS-RE16 on Aβ25-35. Various concentrations of the peptides (YS-RD11; 1 to 100 µM, YS-RE16; 0.01 to 10 µM) were incubated independently with 100 µM Aβ25-35 (final con. 100 µM) in PBS at 37 °C. The fluorescence intensity of reaction mixtures was measured after 4 h.

Solubility = type: physicochemical; conditions: stated without data
A549 cells = test: A549 cell viability, WST-8 assay; conditions: 0.1 mg/mL peptide, 72 h, WST-8, n = 4; compared with FLAG peptide
Procedure: The human lung cancer cell line, A549, was obtained from the Riken Cell Bank (Ibaraki, Japan). The cells were cultured as described previously [30, 43]. Briefly, A549 cells (4 × 10^3 cells/well) were seeded into 96-well plates and maintained in Dulbecco’s modified Eagle’s medium (DMEM) supplemented with 10% fetal bovine serum, 100 units/mL penicillin, and 100 μg/mL streptomycin at 37 °C in a humidified atmosphere with 5% CO2. […] After incubation for 72 h, the medium was exchanged for 110 μL of medium containing 10 μL WST-8 (water-soluble tetrazolium salt WST-8) reagent and 100 μL DMEM). The cells were further incubated for 1 h, the absorbance was determined at 450 nm with a reference wavelength of 620 nm using a SPECTRA max Plus384 microplate reader (Molecular Devices, LCC, San Jose, CA, USA).

aggregated Aβ25-35 = test: SEM, resolution of aggregated Aβ25-35; type: biochemical
Procedure: Aβ25-35 (100 μM) was incubated with YS-RD11 or YS-RE16 in PBS at 37 °C. The reaction mixture was centrifuged at 9000 rpm for 5 min. The supernatant was removed, 200 μL of MilliQ water was added and mixed, and the solution was centrifuged at 9000 rpm for 5 min to obtain a sample for SEM [42]. Aggregated Aβ25-35 (100 μM) peptides were prepared by incubating for 18 h in PBS.
Next, the resolving effect of YS-RD11, YS-RE16, and YS-DE6 on aggregated Aβ25-35 was assessed by observing its shape using SEM.

u-proMMP-7 = conditions: cited from earlier work
Text: Chaperones are potential drug candidates for folding diseases, such as AD and Parkinson’s disease, which are caused by protein aggregation. In recent years, research has focused on low-molecular-weight chemical chaperones rather than on chaperone proteins. Biochemical methods are used to screen for chemical chaperones with the aim of developing therapeutic agents for lysosomal diseases, which are ...

Aβ42 = tested on: Aβ42; set-up: method as in 2 sources, ref 28 = [28]; PMID 30930080; doi:10.1016/j.peptides.2019.03.005; 28. Nakamura R. Konishi M. Taniguchi M. Hatakawa Y. Akizawa T. The discovery of shorter synthetic proteolytic peptides derived from Tob1 protein Peptides 2019 116 71 77 10.1016/j.peptides.2019.03.005 ||| ref 29, 30, 31 = [29]; PMID 31687556; doi:10.1016/j.heliyon.2019.e02454; 29. Hatakawa Y. Nakamura R. Konishi M. Sakane T. Saito M. Akizawa T. Catalytides derived from the Box A region in the ANA/BTG3 protein cleave amyloid-β fragment peptide Heliyon 2019 5 e02454 10.1016/j || [30]; PMID 33816760; doi:10.1002/trc2.12146; 30. Hatakawa Y. Nakamura R. Konishi M. Sakane T. Tanaka A. Matsuda A. Saito M. Akizawa T. Amyloid beta cleavage by ANA-TA9, a synthetic peptide from the ANA/BTG3 Box A region Alzheimers Dement. Transl || [31]; 31. Nakamura R. Konishi M. Hatakawa Y. Saito M. Akizawa T. The Novel Catalytic Peptide, A Synthetic Nona-Peptide (JAL-TA9) Derived from Tob1 Protein, Digests the Amyloid-β Peptide J. R. Sci. 2019 1 30; conditions: cited from earlier work
[1] = set-up: method as in PMID 30930080; conditions: structure–activity relationship of JAL-AK22; cited from earlier work
[2] = in vivo; cited from earlier work
patients with AD = conditions: cited from earlier work
Text: Alzheimer’s disease (AD) is the most common age-related neurodegenerative disorder worldwide. Amyloid-β (Aβ) 42, which is produced by the cleavage of amyloid precursor protein (APP) by β- or γ-secretases, is considered to cause AD [1, 2, 3]. […] Thus, the current main strategy is to develop Aβ antibodies and vaccines aimed at inhibiting Aβ aggregation. […] Lecanemab, the latest Aβ ant ...

Molecule: CC(C)C[C@H](NC(=O)[C@H](Cc1c[nH]cn1)NC(=O)[C@@H](NC(=O)[C@H](CC(C)C)NC(=O)[C@H](Cc1ccc(O)cc1)NC(=O)[C@@H](NC(=O)[C@H](CC(C)C)NC(=O)[C@@H](NC(=O)[C@H](CCC(=O)O)NC(=O)[C@@H](N)CCCNC(=N)N)[C@@H](C)O)C(C)C)[C@@H](C)O)C(=O)N[C@@H](CC(=O)O)C(=O)O [YS-RD11] (H-RETLVYLTHLD-OH)
- IC50 (Aβ25-35): ~1500 nM
- solubility (Solubility): high solubility
- effect on growth of A549 cells (A549 cells): did not show a significant inhibitory effect on the growth of A549 cells

Molecule: CC(C)C[C@H](NC(=O)[C@H](Cc1c[nH]cn1)NC(=O)[C@@H](NC(=O)[C@H](CC(C)C)NC(=O)[C@H](Cc1ccc(O)cc1)NC(=O)[C@@H](NC(=O)[C@H](CC(C)C)NC(=O)[C@@H](NC(=O)[C@H](CCC(=O)O)NC(=O)[C@@H](N)CCCNC(=N)N)[C@@H](C)O)C(C)C)[C@@H](C)O)C(=O)N[C@@H](CC(=O)O)C(=O)N[C@@H](Cc1ccc(O)cc1)C(=O)N[C@@H](CC(=O)O)C(=O)N[C@@H](CC(=O)O)C(=O)N[C@H](C(=O)N[C@@H](CCC(=O)O)C(=O)O)[C@@H](C)O [YS-RE16] (H-RETLVYLTHLDYDDTE-OH)
- IC50 (Aβ25-35): ~500 nM
- effect on growth of A549 cells (A549 cells): did not show a significant inhibitory effect on the growth of A549 cells

Molecule: DYDDTE [YS-DE6, peptide derived from YS-RE20, DYDDTE]
- amyloid fibrils observed by SEM, peptide 100 µM (aggregated Aβ25-35; 100 µM peptide + 100 µM aggregated Aβ25-35 (18 h), PBS): a cluster of amyloid fibrils
- effect on Aβ25-35 aggregation, negative control (aggregated Aβ25-35; YS-DE6 as negative control): did not show any effect against Aβ25-35 aggregation

Molecule: KWEGHWYPEKPYKGSGFRCIHI [JAL-AK22, reference compound]
- activation of proMMP-7 (u-proMMP-7): activates proMMP-7 by cleaving the pro-domain of MMP-7

Molecule: YKGSGFRMI [JAL-TA9]
- cleavage of Aβ42 (Aβ42): cleaved Aβ42 with serine protease-like activity
- cleavage of soluble (a-Aβ42) and solid insoluble (s-Aβ42) Aβ42 (Aβ42): cleaved both the authentic soluble form Aβ42 (a-Aβ42) and the solid insoluble form Aβ42 (s-Aβ42) in the central region
- auto-proteolytic activity [1]: strongest auto-proteolytic activity

Molecule: YKNMRETLVYLTHLD [YS-YD15]
- aggregation inhibitory activity against Aβ25-35 (conclusion in words) (Aβ25-35; ThT, 100 μM peptides, PBS): weak inhibitory activity

Molecule: YKNMRETLVYLTHLDYDDTE [YS-YE20]
- activation of u-proMMP7 (u-proMMP-7; screening of 3000 types of peptides, no reference given): activates u-proMMP7 by acting as a chaperone rather than Catalytide

Molecule: oxytocin: the peptide oxytocin
- drug delivery to the brain via nasal application [2]: direct and efficient drug delivery

B1: lecanemab: latest Aβ antibody drug approved by the U.S. Food and Drug Administration (antibody, chains of the INN, looked up, V domains shown)
VH: EVQLVESGGGLVQPGGSLRLSCSASGFTFSSFGMHWVRQAPGKGLEWVAYISSGSSTIYYGDTVKGRFTISRDNAKNSLFLQMSSLRAEDTAVYYCAREGGYYYGRSYYTMDYWGQGTTVTVSS
VL: DVVMTQSPLSLPVTPGAPASISCRSSQSIVHSNGNTYLEWYLQKPGQSPKLLIYKVSNRFSGVPDRFSGSGSGTDFTLRISRVEAEDVGIYYCFQGSHVPPTFGPGTKLEIK
- side effects (patients with AD): cerebral edema and cerebral microhemorrhage
- clinical effectiveness by AD stage (patients with AD; patients with AD, no reference at this sentence): potentially effective in the early stages of AD but is less effective in the later stages
